Data from ChEMBL document CHEMBL1201861, “Genomics of Drug Sensitity in Cancer screening data, Wellcome Trust Sanger Institute”.

Legend:
Assay in all cases: cells
HD-MY-Z = type: functional, cell-based, Homo sapiens; conditions: Homo sapiens, HD-MY-Z;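 further: growth inhibition of HD-MY-Z cells, read out with a cell viability assay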
Description: SANGER: Inhibition of human HD-MY-Z cell growth in a cell viability assay.

MZ7-mel = type: functional, cell-based, Homo sapiens; conditions: Homo sapiens, MZ7-mel;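 further: growth inhibition of human MZ7-mel cells, measured by a cell viability assay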
Description: SANGER: Inhibition of human MZ7-mel cell growth in a cell viability assay.

HCE-T = type: functional, cell-based, Homo sapiens; conditions: Homo sapiens, HCE-T;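 further: cell viability assay read-out, reporting inhibition of HCE-T cell growth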
Description: SANGER: Inhibition of human HCE-T cell growth in a cell viability assay.

LAMA-84 = type: functional, cell-based, Homo sapiens; conditions: Homo sapiens, LAMA-84;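 further: growth inhibition of LAMA-84 cells, read out with a cell viability assay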
CTV-1 = type: functional, cell-based, Homo sapiens; conditions: Homo sapiens, CTV-1;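 further: growth inhibition of the cell line, read out with a cell viability assay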
Description: SANGER: Inhibition of human CTV-1 cell growth in a cell viability assay.

SW684 = type: functional, cell-based, Homo sapiens; conditions: Homo sapiens, SW684;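 further: growth inhibition of human SW684 cells, measured by a cell viability assay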
CAS-1 = type: functional, cell-based, Homo sapiens; conditions: Homo sapiens, CAS-1;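 further: growth inhibition of CAS-1 cells, measured with a cell viability assay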
KG-1 = type: functional, cell-based, Homo sapiens; conditions: Homo sapiens, KG-1;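 further: growth inhibition of KG-1 cells, read out by a cell viability assay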
Description: SANGER: Inhibition of human KG-1 cell growth in a cell viability assay.

MN-60 = type: functional, cell-based, Homo sapiens; conditions: Homo sapiens, MN-60;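 further: growth inhibition of the MN-60 cell line, determined with a cell viability assay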
Description: SANGER: Inhibition of human MN-60 cell growth in a cell viability assay.

ES8 = type: functional, cell-based, Homo sapiens; conditions: Homo sapiens, ES8;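 further: growth inhibition of human ES8 cells, read out with a cell viability assay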
Description: SANGER: Inhibition of human ES8 cell growth in a cell viability assay.

A101D = type: functional, cell-based, Homo sapiens; conditions: Homo sapiens, A101D;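 further: growth inhibition of the cell line, measured with a viability assay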
Description: SANGER: Inhibition of human A101D cell growth in a cell viability assay.

SH-4 = type: functional, cell-based; conditions: Homo sapiens;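 further: growth inhibition of SH-4 cells, read out with a cell viability assay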
TK-10 = type: functional, cell-based, Homo sapiens; conditions: Homo sapiens, TK-10;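 further: growth inhibition of TK-10 cells, read out in a cell viability assay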
KS-1 = type: functional, cell-based; conditions: Homo sapiens;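 further: growth inhibition of KS-1 cells, read out with a cell viability assay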
Description: SANGER: Inhibition of human KS-1 cell growth in a cell viability assay.

MMAC-SF = type: functional, cell-based; conditions: Homo sapiens;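 further: growth inhibition of human MMAC-SF cells, read out with a cell viability assay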
D283 Med = type: functional, cell-based, Homo sapiens; conditions: Homo sapiens, D283 Med
Description: SANGER: Inhibition of human D-283MED cell growth in a cell viability assay.

SK-MEL-2 = type: functional, cell-based, Homo sapiens; conditions: Homo sapiens, SK-MEL-2;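 further: growth inhibition of human SK-MEL-2 cells measured with a cell viability assay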
Description: SANGER: Inhibition of human SK-MEL-2 cell growth in a cell viability assay.

697 = type: functional, cell-based, Homo sapiens; conditions: Homo sapiens
NOS-1 = type: functional, cell-based, Homo sapiens; conditions: Homo sapiens, NOS-1;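 further: growth inhibition of the human NOS-1 cell line, read out with a cell viability assay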
Description: SANGER: Inhibition of human NOS-1 cell growth in a cell viability assay.

SJSA-1 = type: functional, cell-based, Homo sapiens; conditions: Homo sapiens, SJSA-1;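 further: growth inhibition of human SJSA-1 cells, read out through a cell viability measurement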
Description: SANGER: Inhibition of human SJSA-1 cell growth in a cell viability assay.

MHH-PREB-1 = type: functional, cell-based, Homo sapiens; conditions: Homo sapiens, MHH-PREB-1;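 further: cell viability assay measuring inhibition of proliferation of human MHH-PREB-1 cells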
Description: SANGER: Inhibition of human MHH-PREB-1 cell growth in a cell viability assay.

KGN = type: functional, cell-based, Homo sapiens; conditions: Homo sapiens, KGN;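 further: growth inhibition of KGN cells, read out with a cell viability assay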
Description: SANGER: Inhibition of human KGN cell growth in a cell viability assay.

LNCaP-Clone-FGC = type: functional, cell-based, Homo sapiens; conditions: Homo sapiens, LNCaP-Clone-FGC
Description: SANGER: Inhibition of human LNCaP-Clone-FGC cell growth in a cell viability assay.

K5 = type: functional, cell-based, Homo sapiens; conditions: Homo sapiens, K5
Description: SANGER: Inhibition of human K5 cell growth in a cell viability assay.

NCI-H69 = type: functional, cell-based, Homo sapiens; conditions: Homo sapiens, NCI-H69;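 further: growth inhibition of the cell line, read out with a cell viability assay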
Description: SANGER: Inhibition of human NCI-H69 cell growth in a cell viability assay.

GB-1 = type: functional, cell-based, Homo sapiens; conditions: Homo sapiens, GB-1;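 further: growth of GB-1 cells judged by a viability assay, IC50 marks the concentration inhibiting growth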
Description: SANGER: Inhibition of human GB-1 cell growth in a cell viability assay.

KNS-42 = type: functional, cell-based; conditions: Homo sapiens;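 further: growth inhibition of KNS-42 cells, read out with a cell viability assay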
Description: SANGER: Inhibition of human KNS-42 cell growth in a cell viability assay.

HCE-4 = type: functional, cell-based; conditions: Homo sapiens;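 further: cell viability assay measuring inhibition of growth in the human HCE-4 cell line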
Description: SANGER: Inhibition of human HCE-4 cell growth in a cell viability assay.

ONS-76 = type: functional, cell-based, Homo sapiens; conditions: Homo sapiens, ONS-76;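 further: growth inhibition of human ONS-76 cells, read out with a cell viability assay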
Description: SANGER: Inhibition of human ONS-76 cell growth in a cell viability assay.

U-266 = type: functional, cell-based, Homo sapiens; conditions: Homo sapiens, U-266
JVM-3 = type: functional, cell-based, Homo sapiens; conditions: Homo sapiens, JVM-3;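 further: growth inhibition of human JVM-3 cells, read out with a cell viability assay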
Description: SANGER: Inhibition of human JVM-3 cell growth in a cell viability assay.

SF-126 = type: functional, cell-based, Homo sapiens; conditions: Homo sapiens, SF-126;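 further: growth inhibition of human SF126 cells, read out with a cell viability assay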
NCI-H1838 = type: functional, cell-based, Homo sapiens; conditions: Homo sapiens, NCI-H1838;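 further: growth inhibition of NCI-H1838 cells, determined with a cell viability readout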
Description: SANGER: Inhibition of human NCI-H1838 cell growth in a cell viability assay.

LU-139 = type: functional, cell-based, Homo sapiens; conditions: Homo sapiens, LU-139
LU-134-A = type: functional, cell-based, Homo sapiens; conditions: Homo sapiens, LU-134-A
Description: SANGER: Inhibition of human LU-134-A cell growth in a cell viability assay.

CCRF-CEM = type: functional, cell-based, Homo sapiens; conditions: Homo sapiens, CCRF-CEM;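 further: inhibition of CCRF-CEM cell growth, measured by a cell viability assay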
Description: SANGER: Inhibition of human CCRF-CEM cell growth in a cell viability assay.

GR-ST = type: functional, cell-based, Homo sapiens; conditions: Homo sapiens, GR-ST
Description: SANGER: Inhibition of human GR-ST cell growth in a cell viability assay.

KY821 = type: functional, cell-based, Homo sapiens; conditions: Homo sapiens, KY821;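 further: growth inhibition of human KY821 cells, read out by a cell viability assay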
Description: SANGER: Inhibition of human KY821 cell growth in a cell viability assay.

NB13 = type: functional, cell-based, Homo sapiens; conditions: Homo sapiens, NB13;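 further: cell viability readout measuring growth inhibition of human NB13 cells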
Description: SANGER: Inhibition of human NB13 cell growth in a cell viability assay.

NCI-H526 = type: functional, cell-based, Homo sapiens; conditions: Homo sapiens, NCI-H526;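 further: growth inhibition of the human NCI-H526 cell line, measured by a cell viability assay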
Description: SANGER: Inhibition of human NCI-H526 cell growth in a cell viability assay.

EOL1 = type: functional, cell-based, Homo sapiens; conditions: Homo sapiens, EOL1;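 further: growth inhibition of EoL-1 cells, read out by a cell viability assay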
VA-ES-BJ = type: functional, cell-based, Homo sapiens; conditions: Homo sapiens, VA-ES-BJ;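 further: growth inhibition of the VA-ES-BJ cell line, read out by a cell viability assay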
Description: SANGER: Inhibition of human VA-ES-BJ cell growth in a cell viability assay.

LC-2-ad = type: functional, cell-based, Homo sapiens; conditions: Homo sapiens, LC-2-ad;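 further: growth inhibition of human LC-2-ad cells, read out with a cell viability assay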
Description: SANGER: Inhibition of human LC-2-ad cell growth in a cell viability assay.

8-MG-BA = type: functional, cell-based, Homo sapiens; conditions: Homo sapiens, 8-MG-BA;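 further: growth inhibition of 8-MG-BA cells, read out with a cell viability assay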
Description: SANGER: Inhibition of human 8-MG-BA cell growth in a cell viability assay.

NMC-G1 = type: functional, cell-based, Homo sapiens; conditions: Homo sapiens, NMC-G1;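 further: growth inhibition of the NMC-G1 cell line, measured with a cell viability read-out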
Description: SANGER: Inhibition of human NMC-G1 cell growth in a cell viability assay.

NB6 = type: functional, cell-based, Homo sapiens; conditions: Homo sapiens, NB6;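 further: growth inhibition of NB6 cells, read out by a cell viability assay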
Description: SANGER: Inhibition of human NB6 cell growth in a cell viability assay.

NCI-H1092 = type: functional, cell-based, Homo sapiens; conditions: Homo sapiens, NCI-H1092;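 further: cell growth inhibition measured with a cell viability assay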
Description: SANGER: Inhibition of human NCI-H1092 cell growth in a cell viability assay.

KURAMOCHI = type: functional, cell-based, Homo sapiens; conditions: Homo sapiens, KURAMOCHI;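 further: growth inhibition of KURAMOCHI cells, read out with a cell viability assay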
Description: SANGER: Inhibition of human KURAMOCHI cell growth in a cell viability assay.

MS-1 = type: functional, cell-based, Homo sapiens; conditions: Homo sapiens, MS-1;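 further: growth inhibition of MS-1 cells, read out by cell viability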
Description: SANGER: Inhibition of human MS-1 cell growth in a cell viability assay.

TE-9 = type: functional, cell-based, Homo sapiens; conditions: Homo sapiens, TE-9;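 further: cell growth inhibition, measured with a cell viability readout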
Description: SANGER: Inhibition of human TE-9 cell growth in a cell viability assay.

GI-ME-N = type: functional, cell-based, Homo sapiens; conditions: Homo sapiens, GI-ME-N;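 further: growth inhibition of human GI-ME-N cells, read out with a cell viability assay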
Description: SANGER: Inhibition of human GI-ME-N cell growth in a cell viability assay.

OC[C@H](Cc1ccccc1)Nc1nc(Oc2ccc3c(c2)CCC3)nc2c1ncn2Cc1ccc(-c2ccccc2)cc1
IC50 (HD-MY-Z): > 10.2 µM
IC50 (MZ7-mel): 8.89 µM
IC50 (HCE-T): > 10.2 µM
IC50 (LAMA-84): > 10.2 µM
IC50 (CTV-1): > 10.2 µM
IC50 (SW684; read-out: IC50): 8.52 µM
IC50 (CAS-1): > 10.2 µM
IC50 (KG-1): > 10.2 µM
IC50 (MN-60): > 10.2 µM
IC50 (ES8): > 10.2 µM
IC50 (A101D): > 10.2 µM
IC50 (SH-4): > 10.2 µM
IC50 (TK-10): > 10.2 µM
IC50 (KS-1): > 10.2 µM
IC50 (MMAC-SF): > 10.2 µM
IC50 (D283 Med): > 10.2 µM
IC50 (SK-MEL-2): > 10.2 µM
IC50 697: 3.32 µM
IC50 (NOS-1): > 10.2 µM
IC50 (SJSA-1): 2560 nM
IC50 (MHH-PREB-1): > 10.2 µM
IC50 (KGN): > 10.2 µM
IC50 (LNCaP-Clone-FGC): > 10.2 µM
IC50 (K5): > 10.2 µM
IC50 (NCI-H69): > 10.2 µM
IC50 (GB-1): 5.25 µM
IC50 (KNS-42): > 10.2 µM
IC50 (HCE-4): 7.47 µM
IC50 (ONS-76): 8.58 µM
IC50 (U-266): > 10.2 µM
IC50 (JVM-3): > 10.2 µM
IC50 (SF-126): > 10.2 µM
IC50 (NCI-H1838): > 10.2 µM
IC50 (LU-139): > 10.2 µM
IC50 (LU-134-A): > 10.2 µM
IC50 (CCRF-CEM): 5.76 µM
IC50 (GR-ST): 5.51 µM
IC50 (KY821): > 10.2 µM
IC50 (NB13): 8.09 µM
IC50 (NCI-H526): > 10.2 µM
IC50 (EOL1): 1880 nM
IC50 (VA-ES-BJ): 2570 nM
IC50 (LC-2-ad): 8.53 µM
IC50 (8-MG-BA): 3.54 µM
IC50 (NMC-G1): > 10.2 µM
IC50 (NB6): > 10.2 µM
IC50 (NCI-H1092): > 10.2 µM
IC50 (KURAMOCHI): 3.82 µM
IC50 (MS-1): > 10.2 µM
IC50 (TE-9): > 10.2 µM
IC50 (GI-ME-N): > 10.2 µM

O=S(=O)(O)c1ccc2cc(/N=N/c3cc(S(=O)(=O)O)c4cccnc4c3O)ccc2c1
IC50 (HD-MY-Z): > 16 µM
IC50 (MZ7-mel): > 16 µM
IC50 (HCE-T): > 16 µM
IC50 (LAMA-84): > 16 µM
IC50 (CTV-1): > 16 µM
IC50 (SW684; read-out: IC50): > 16 µM
IC50 (CAS-1): > 16 µM
IC50 (KG-1): > 16 µM
IC50 (MN-60): > 16 µM
IC50 (ES8): > 16 µM
IC50 (A101D): > 16 µM
IC50 (SH-4): > 16 µM
IC50 (TK-10): > 16 µM
IC50 (KS-1): > 16 µM
IC50 (MMAC-SF): > 16 µM
IC50 (D283 Med): > 16 µM
IC50 (SK-MEL-2): > 16 µM
IC50 697: > 16 µM
IC50 (NOS-1): > 16 µM
IC50 (SJSA-1): > 16000 nM
IC50 (MHH-PREB-1): > 16 µM
IC50 (KGN): > 16 µM
IC50 (LNCaP-Clone-FGC): > 16 µM
IC50 (K5): > 16 µM
IC50 (NCI-H69): > 16 µM
IC50 (GB-1): > 16 µM
IC50 (KNS-42): > 16 µM
IC50 (HCE-4): > 16 µM
IC50 (ONS-76): > 16 µM
IC50 (U-266): > 16 µM
IC50 (JVM-3): > 16 µM
IC50 (SF-126): > 16 µM
IC50 (NCI-H1838): > 16 µM
IC50 (LU-139): > 16 µM
IC50 (LU-134-A): > 16 µM
IC50 (CCRF-CEM): > 16 µM
IC50 (GR-ST): > 16 µM
IC50 (KY821): > 16 µM
IC50 (NB13): > 16 µM
IC50 (NCI-H526): > 16 µM
IC50 (EOL1): > 16000 nM
IC50 (VA-ES-BJ): > 16000 nM
IC50 (LC-2-ad): > 16 µM
IC50 (8-MG-BA): > 16 µM
IC50 (NMC-G1): > 16 µM
IC50 (NB6): 13.7 µM
IC50 (NCI-H1092): > 16 µM
IC50 (KURAMOCHI): > 16 µM
IC50 (MS-1): > 16 µM
IC50 (TE-9): > 16 µM
IC50 (GI-ME-N): > 16 µM

Cc1ccc(NC(=O)c2ccc(CN3CCN(C)CC3)cc2)cc1Nc1nccc(-c2cccnc2)n1 [IMATINIB]
IC50 (HD-MY-Z): > 2 µM
IC50 (MZ7-mel): > 2 µM
IC50 (HCE-T): > 2 µM
IC50 (LAMA-84): 0.073 µM
IC50 (CTV-1): > 2 µM
IC50 (SW684): > 2 µM
IC50 (CAS-1): > 2 µM
IC50 (KG-1): > 2 µM
IC50 (MN-60): > 2 µM
IC50 (ES8): > 2 µM
IC50 (A101D): > 2 µM
IC50 (SH-4): > 2 µM
IC50 (TK-10): > 2 µM
IC50 (KS-1): > 2 µM
IC50 (MMAC-SF): > 2 µM
IC50 (D283 Med): > 2 µM
IC50 (SK-MEL-2): > 2 µM
IC50 697: > 2 µM
IC50 (NOS-1): 1.65 µM
IC50 (SJSA-1): > 2000 nM
IC50 (MHH-PREB-1): > 2 µM
IC50 (KGN): > 2 µM
IC50 (K5): > 2 µM
IC50 (NCI-H69): > 2 µM
IC50 (GB-1): > 2 µM
IC50 (KNS-42): > 2 µM
IC50 (HCE-4): > 2 µM
IC50 (ONS-76): > 2 µM
IC50 (U-266): > 2 µM
IC50 (JVM-3): > 2 µM
IC50 (SF-126): > 2 µM
IC50 (NCI-H1838): > 2 µM
IC50 (LU-139): > 2 µM
IC50 (LU-134-A): > 2 µM
IC50 (CCRF-CEM): > 2 µM
IC50 (GR-ST): > 2 µM
IC50 (KY821): > 2 µM
IC50 (NB13): > 2 µM
IC50 (NCI-H526): > 2 µM
IC50 (EOL1): > 2000 nM
IC50 (VA-ES-BJ): > 2000 nM
IC50 (LC-2-ad): > 2 µM
IC50 (8-MG-BA): > 2 µM
IC50 (NMC-G1): > 2 µM
IC50 (NB6): > 2 µM
IC50 (NCI-H1092): > 2 µM
IC50 (MS-1): > 2 µM
IC50 (TE-9): > 2 µM
IC50 (GI-ME-N): > 2 µM
